Test results: patent publication US7982043B2, “Protein tyrosine kinase enzyme inhibitors” (Wyeth LLC, priority 2003, dated 2011)
Converted amounts (≈) assume the structure as drawn. Like-named read-outs stand apart in the source and are kept apart here.

Key:
Format in all cases: cell-based
[1] = biological target: mouse fibroblast cell line transfected with the HER-2 oncogene (3T3/neu) (UniProt P04626, cells depend on it, species not given); assay: Cell proliferation assay (SRB), 3T3/neu; settings: for GI50: read-out: CELL IC50 3T3/NEU (converted)
A431 cells = assay: Cell proliferation assay (SRB), A431; settings: for IC50: Homo sapiens, A-431, 48 h, read-out: CELL IC50 A431
SK-Br-3 cells = assay: Cell proliferation assay (SRB), SK-Br-3; settings: for IC50: Homo sapiens, SK-BR-3, 48 h, read-out: CELL IC50 SKBr3
MDA-MB-435 cells = assay: Cell proliferation assay (SRB), MDA-MB-435; settings: for IC50: Homo sapiens, MDA-MB-435, 48 h, read-out: CELL IC50 MDA-MB-435
SW620 cells = assay: Cell proliferation assay (SRB), SW620; settings: for IC50: Homo sapiens, SW-620, 48 h, read-out: CELL IC50 SW620
[2] = mouse fibroblast cell line transfected with the her-2 oncogene (3t3/neu)

| Molecule | GI50 ([1]; EGFR −, Her-2 +++, 2 days, SRB) [nM] | IC50 (A431 cells; EGFR +++, Her-2 +, 2 days, SRB) [µg/mL] | IC50 (SK-Br-3 cells; EGFR −, Her-2 +++, 2 days, SRB) [µg/mL] | IC50 (SW620 cells; EGFR −, Her-2 −, 2 days, SRB) [µg/mL] | further results |
| --- | --- | --- | --- | --- | --- |
| 4-{3-chloro-4-[(4-oxo-3,4-dihydro-2-quinazolinyl)sulfanyl]anilino}-7-methoxy-6-hydro-2-quinazolinyl)sulfanyl]anilino}-7-methoxy-6-nitro-3-quinolinecarbonitrile [Example 44] | – | – | – | – | CELL IC50 3T3/NEU [1, 2]: 4.54 µg/mL; CELL IC50 A431 (A431 cells): 2.28 µg/mL; CELL IC50 SKBr3 (SK-Br-3 cells): 4.54 µg/mL; CELL IC50 MDA-MB-435 (MDA-MB-435 cells): >5 µg/mL; CELL IC50 SW620 (SW620 cells): 1.96 µg/mL |
| C=CC(=O)Nc1ccc2ncc(C#N)c(Nc3ccc(Sc4nccn4C)c(Cl)c3)c2c1 [Example 21, N-{4-[3-Chloro-4-(1-methyl-1H-imidazol-2-ylsulfanyl)-phenylamino]-3-cyano-quinolin-6-yl}-acrylamide] | 1000 | 0.62 (≈ 1.35 µM) | 0.01 (≈ 0.0217 µM) | 1.84 (≈ 3.99 µM) | IC50 (MDA-MB-435 cells; EGFR −, Her-2 −, 2 days, SRB): 4.57 µg/mL (≈ 9.91 µM) |
| CCOc1cc2ncc(C#N)c(Nc3ccc4cc[nH]c4c3)c2cc1OCC [Example 22, 6,7-Diethoxy-4-(1H-indol-6-ylamino)-quinoline-3-carbonitrile] | 2510 | 0.123 (≈ 0.33 µM) | 0.0374 (≈ 0.1 µM) | 0.286 (≈ 0.768 µM) | IC50 (MDA-MB-435 cells; EGFR −, Her-2 −, 2 days, SRB): 0.365 µg/mL (≈ 0.98 µM) |
| CCOc1cc2ncc(C#N)c(Nc3ccc4c(c3)OCCO4)c2cc1OCC [Example 23, 4-(2,3-Dihydro-benzo[1,4]dioxin-6-ylamino)-6,7-diethoxy-quinoline-3-carbonitrile] | 958 | – | – | – | – |
| COCCOc1cc2ncc(C#N)c(Nc3ccc4cn[nH]c4c3)c2cc1OCCOC [Example 24, 4-(1H-Indazol-6-ylamino)-6,7-bis-(2-methoxy-ethoxy)-quinoline-3-carbonitrile] | > 11500 | – | – | – | – |
| CCOc1cc2ncc(C#N)c(Nc3ccc4c(=O)[nH][nH]c(=O)c4c3)c2cc1OCC [Example 25, 4-(1,4-Dioxo-1,2,3,4-tetrahydro-phthalazin-6-ylamino)-6,7-diethoxy-quinoline-3-carbonitrile] | > 12000 | – | – | – | – |
| CCOc1cc2ncc(C#N)c(Nc3ccc4c(c3)CCC4)c2cc1OCC [Example 26, 6,7-Diethoxy-4-(indan-5-ylamino)-quinoline-3-carbonitrile] | 53 | – | – | 0.294 (≈ 0.787 µM) | – |
| CCOc1cc2ncc(C#N)c(Nc3ccc4[nH]c(=O)oc(=O)c4c3)c2cc1OCC [Example 27, 4-(2,4-Dioxo-1,4-dihydro-2H-benzo[d][1,3]oxazin-6-ylamino)-6,7-diethoxy-quinoline-3-carbonitrile] | 11000 | – | – | – | – |
| CCOc1cc2ncc(C#N)c(Nc3ccc4c(c3)CCC4=O)c2cc1OCC [Example 28, 6,7-Diethoxy-4-(1-oxo-indan-5-ylamino)-quinoline-3-carbonitrile] | 80.3 | 0.0181 (≈ 0.0467 µM) | – | 0.0244 (≈ 0.063 µM) | – |
| CCOc1cc2ncc(C#N)c(Nc3ccc4c(c3)C(=O)OC4)c2cc1OCC [Example 29, 6,7-Diethoxy-4-(3-oxo-1,3-dihydro-isobenzofuran-5-ylamino)-quinoline-3-carbonitrile] | 8480 | – | – | – | – |
| CCOc1cc2ncc(C#N)c(Nc3ccc4c(c3)S(=O)(=O)C=C4)c2cc1OCC [Example 30, 4-(1,1-Dioxo-1H-1-benzo[b]thiophen-6-ylamino)-6,7-diethoxy-q uinoline-3-carbonitrile] | – | – | – | – | CELL IC50 3T3/NEU ([1]; EGFR −, Her-2 +++, 2 days, SRB): 0.251 µg/mL; CELL IC50 A431 (A431 cells; EGFR +++, Her-2 +, 2 days, SRB): 0.257 µg/mL; CELL IC50 SKBr3 (SK-Br-3 cells; EGFR −, Her-2 +++, 2 days, SRB): 0.336 µg/mL; CELL IC50 MDA-MB-435 (MDA-MB-435 cells; EGFR −, Her-2 −, 2 days, SRB): 0.00328 µg/mL; CELL IC50 SW620 (SW620 cells; EGFR −, Her-2 −, 2 days, SRB): 0.146 µg/mL |
| CCOc1cc2ncc(C#N)c(Nc3ccc4cn[nH]c4c3)c2cc1OC [Example 31, 7-Ethoxy-4-(1H-indazol-6-ylamino)-6-methoxy-quinoline-3-carbonitrile] | 74.3 | – | – | – | – |
| CCOc1cc2c(Nc3ccc4cn[nH]c4c3)c(C#N)cnc2cc1OC [Example 32, 6-Ethoxy-4-(1H-indazol-6-ylamino)-7-methoxy-quinoline-3-carbonitrile] | 13400 | – | – | – | – |
| CCOc1cc2ncc(C#N)c(Nc3ccc4c(c3)C(=O)NCC(=O)N4C)c2cc1OCC [Example 33, 6,7-Diethoxy-4-(1-methyl-2,5-dioxo-2,3,4,5-tetrahydro-1H-benzo[e][1,4]diazepin-7-ylamino)-quinoline-3-carbonitrile] | > 11200 | – | – | – | – |
| COc1cc2c(Nc3ccc4cn[nH]c4c3)c(C#N)cnc2cc1OCCCN1CCOCC1 [Example 34, 4-(1H-Indazol-6-ylamino)-6-methoxy-7-(3-morpholin-4-yl-propoxy)-quinoline-3-carbonitrile] | > 10900 | > 5 | > 5 | > 5 | IC50 (MDA-MB-435 cells; EGFR −, Her-2 −, 2 days, SRB): > 5 µg/mL |
| COc1cc2ncc(C#N)c(Nc3ccc(Sc4nccn4C)c(Cl)c3)c2cc1[N+](=O)[O-] [Example 35, 4-({3-chloro-4-[(1-methyl-1H-imidazol-2-yl)sulfanyl]phenyl}amino)-7-methoxy-6-nitro-3-quinolinecarbonitrile] | 8760 | 2.88 (≈ 6.17 µM) | 0.669 (≈ 1.43 µM) | 1.55 (≈ 3.32 µM) | IC50 (MDA-MB-435 cells; EGFR −, Her-2 −, 2 days, SRB): 1 µg/mL (≈ 2.14 µM) |
| COc1cc2ncc(C#N)c(Nc3ccc(Sc4nccn4C)c(Cl)c3)c2cc1N [Example 36, 6-amino-4-({3-chloro-4-[(1-methyl-1H-imidazol-2-yl)sulfanyl]phenyl}amino)-7-methoxy-3-quinolinecarbonitrile] | 2430 | 3.04 (≈ 6.96 µM) | 0.011 (≈ 0.0252 µM) | 3.16 (≈ 7.23 µM) | IC50 (MDA-MB-435 cells; EGFR −, Her-2 −, 2 days, SRB): 0.39 µg/mL (≈ 0.893 µM) |
| COc1cc2ncc(C#N)c(Nc3ccc(Sc4nccs4)c(Cl)c3)c2cc1[N+](=O)[O-] [Example 38, 4-{[3-chloro-4-(1,3-thiazol-2-ylsulfanyl)phenyl]amino}-7-methoxy-6-nitro-3-quinolinecarbonitrile] | 558 | 0.148 (≈ 0.315 µM) | 0.124 (≈ 0.264 µM) | 0.15 (≈ 0.319 µM) | IC50 (MDA-MB-435 cells; EGFR −, Her-2 −, 2 days, SRB): 0.35 µg/mL (≈ 0.745 µM) |
| COc1cc2ncc(C#N)c(Nc3ccc(Sc4nccs4)c(Cl)c3)c2cc1N [Example 39, 6-amino-4-{[3-chloro-4-(1,3-thiazol-2-ylsulfanyl)phenyl]amino}-7-methoxy-3-quinolinecarbonitrile] | 757 | 0.663 (≈ 1.51 µM) | 0.236 (≈ 0.536 µM) | 0.55 (≈ 1.25 µM) | IC50 (MDA-MB-435 cells; EGFR −, Her-2 −, 2 days, SRB): 0.65 µg/mL (≈ 1.48 µM) |
| COc1cc2ncc(C#N)c(Nc3ccc(-n4ccnc4)c(Cl)c3)c2cc1[N+](=O)[O-] [Example 41] | – | – | – | – | CELL IC50 3T3/NEU ([1]; EGFR −, Her-2 +++, 2 days, SRB): 1.09 µg/mL; CELL IC50 A431 (A431 cells; EGFR +++, Her-2 +, 2 days, SRB): 1.79 µg/mL; CELL IC50 SKBr3 (SK-Br-3 cells; EGFR −, Her-2 +++, 2 days, SRB): 1.48 µg/mL; CELL IC50 MDA-MB-435 (MDA-MB-435 cells; EGFR −, Her-2 −, 2 days, SRB): 0.95 µg/mL; CELL IC50 SW620 (SW620 cells; EGFR −, Her-2 −, 2 days, SRB): 1.66 µg/mL |
| COc1cc2ncc(C#N)c(Nc3ccc(-n4ccnc4)c(Cl)c3)c2cc1N [Example 42] | – | – | – | – | CELL IC50 3T3/NEU ([1]; EGFR −, Her-2 +++, 2 days, SRB): 0.53 µg/mL; CELL IC50 A431 (A431 cells; EGFR +++, Her-2 +, 2 days, SRB): 1.63 µg/mL; CELL IC50 SKBr3 (SK-Br-3 cells; EGFR −, Her-2 +++, 2 days, SRB): 1.73 µg/mL; CELL IC50 MDA-MB-435 (MDA-MB-435 cells; EGFR −, Her-2 −, 2 days, SRB): 1.27 µg/mL; CELL IC50 SW620 (SW620 cells; EGFR −, Her-2 −, 2 days, SRB): 5.99 µg/mL |
| COc1cc2ncc(C#N)c(Nc3ccc(Sc4nc5ccccc5c(=O)[nH]4)c(Cl)c3)c2cc1N [Example 45] | – | – | – | – | CELL IC50 3T3/NEU ([1]; EGFR −, Her-2 +++, 2 days, SRB): 1.88 µg/mL; CELL IC50 A431 (A431 cells; EGFR +++, Her-2 +, 2 days, SRB): 1.22 µg/mL; CELL IC50 SKBr3 (SK-Br-3 cells; EGFR −, Her-2 +++, 2 days, SRB): 2.15 µg/mL; CELL IC50 MDA-MB-435 (MDA-MB-435 cells; EGFR −, Her-2 −, 2 days, SRB): 4.58 µg/mL; CELL IC50 SW620 (SW620 cells; EGFR −, Her-2 −, 2 days, SRB): 4.66 µg/mL |
| COc1cc2ncc(C#N)c(Nc3ccc(Sc4nc5ccccc5c(=O)[nH]4)c(Cl)c3)c2cc1NC(=O)/C=C/CN(C)C [Example 46] | – | – | – | – | CELL IC50 3T3/NEU [1, 2]: 0.15 µg/mL; CELL IC50 A431 (A431 cells; EGFR +++, Her-2 +, 2 days, SRB): 0.34 µg/mL; CELL IC50 SKBr3 (SK-Br-3 cells; EGFR −, Her-2 +++, 2 days, SRB): 0.06 µg/mL; CELL IC50 MDA-MB-435 (MDA-MB-435 cells; EGFR −, Her-2 −, 2 days, SRB): >5 µg/mL; CELL IC50 SW620 (SW620 cells; EGFR −, Her-2 −, 2 days, SRB): >5 µg/mL |
| COc1cc2c(Nc3ccc(Sc4nccn4C)c(Cl)c3)c(C#N)cnc2cc1OCCCN1CCOCC1 [Example 51, 4-{3-chloro-4-[(1-methyl-1H-imidazol-2-yl)sulfanyl]anilino}-6-methoxy-7-[3-(4-morpholinyl)propoxy]-3-quinolinecarbonitrile] | 347 | 0.775 (≈ 1.37 µM) | 0.32 (≈ 0.566 µM) | 2.18 (≈ 3.86 µM) | – |
| COc1cc2c(Nc3ccc(Sc4nccn4C)c(Cl)c3)c(C#N)cnc2cc1OCCCn1ccnn1 [Example 73, 4-{3-chloro-4-[(1-methyl-1H-imidazol-2-yl)sulfanyl]anilino}-6-methoxy-7-[3-(1H-1,2,3-triazol-1-yl)propoxy]-3-quinolinecarbonitrile] | 1780 | 1.83 (≈ 3.35 µM) | 0.104 (≈ 0.19 µM) | 3.69 (≈ 6.75 µM) | – |
